Experimental data taken from patent publication US4557930A, “Anticholesteremic anion exchange resins” (Mitsubishi Petrochemical Co., Ltd., priority 1983, dated 1985).

System: descending aorta; plasma lipids
Experiment: In vivo test by rabbit (arteriosclerosis inhibition test): plasma lipids and aorta
Design: species or system rabbit (New Zealand)
Excerpt: Eight to fourteen male New Zealand species rabbits, weighing about 2.2 Kg, were used per each group. To the first group of rabbits was given 40 g/Kg-body weight/day of a mixture of a feed produced by Oriental Yeast Co. mixed with 0.67% of cholesterol for 12 weeks, and to the rabbits of the second and third groups were further given CR - 1 and Clofibrate, respectively.
CR - 1 and Clofibrate employed was mixed in the feed at levels of 1.25% and 0.25%, respectively.
During the tests, the plasma lipid concentrations were measured, and after 12 weeks, all the rabbits were sacrificed by bleeding. Descending aorta were subjected to incision and the conditions of arteriosclerosis were observed.

[1] = 0.67% cholesterol intake, 6 weeks, CR - 1 1.25%, Clofibrate 0.25% in feed
[2] = 0.67% cholesterol intake, 12 weeks, CR - 1 1.25%, Clofibrate 0.25% in feed

SMILES: CCOC(=O)C(C)(C)Oc1ccc(Cl)cc1 [Clofibrate]
- Total plasma: Cholesterol [1]: 1810 ± 124 mg/dL
- Total plasma: Triglyceride [1]: 337.1 ± 66.1 mg/dL
- Total plasma: β-Lipoprotein [1]: 5038 ± 450 mg/dL
- Aorta: Area of blood vessel at arteriosclerosis [2]: 8.0 ± 1.4 cm^2
- Aorta: Inhibition of arteriosclerosis [2]: 18.0%
- Aorta: Total area [2]: 17.7 ± 0.5 cm^2
- Total plasma: Cholesterol [2]: 1895 ± 117 mg/dL
- Total plasma: Triglyceride [2]: 336.8 ± 39.7 mg/dL
- Total plasma: β-Lipoprotein [2]: 4385 ± 574 mg/dL
- Aorta: Percentage of arteriosclerosis ((Area at arteriosclerosis)/(Total blood vessel area) × 100, 0.67% cholesterol intake, 12 weeks): 44.2 ± 7.0%
